The target in the test is T1, human CYP17 (Homo sapiens, UniProt P05093).
T1 sequence (P05093 1-508): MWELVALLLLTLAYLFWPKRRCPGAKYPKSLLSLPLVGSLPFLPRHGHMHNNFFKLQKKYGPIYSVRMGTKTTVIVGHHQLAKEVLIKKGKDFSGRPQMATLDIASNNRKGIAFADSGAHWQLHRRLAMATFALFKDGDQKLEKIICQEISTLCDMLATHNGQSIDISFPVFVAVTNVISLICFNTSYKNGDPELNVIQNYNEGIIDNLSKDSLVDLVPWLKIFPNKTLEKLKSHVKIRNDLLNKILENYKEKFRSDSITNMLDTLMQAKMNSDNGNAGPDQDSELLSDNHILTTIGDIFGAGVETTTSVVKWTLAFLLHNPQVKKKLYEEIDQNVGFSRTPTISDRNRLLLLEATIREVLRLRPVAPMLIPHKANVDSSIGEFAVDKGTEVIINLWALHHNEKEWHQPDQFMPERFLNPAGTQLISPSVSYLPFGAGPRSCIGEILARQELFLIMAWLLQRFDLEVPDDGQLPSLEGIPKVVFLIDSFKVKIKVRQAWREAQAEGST
Nature of the test: Cell-based human CYP17 inhibition assay, H295R adrenocortical carcinoma cells. To be noted: 16 hours at 37° C., read-out: CYP17 (human H295R adrenal cells). The arrangement: H295R Adrenocortical carcinoma cells [NCI-H295A, ATCC Number CRL-2128, American Type Culture Collection; host or cells: H295R adrenocortical carcinoma cells. How it is done:
Cell-Based Human CYP17 Inhibition Assay
A. Materials • 1. H295R Adrenocortical Carcinoma Cells and Growth Media: The media for the H295R Adrenocortical carcinoma cells [NCI-H295A, ATCC Number CRL-2128, American Type Culture Collection, Manassas, Va., US] (500 mL) was a DMEM:F12 Mix 1:1 with 5% […] BD Nu Serum; 1% (5 mL) ITS+Premix [BD Biosciences] and 1% Penstrep. • 2. LNCap-CYP17 Cells and Growth Media: Full length hCYP17a1 gene (NCBI Reference Sequence: NM_000102.3) was cloned in pCDNA3.1(+) vector between HindIII and XhoI site. The pCDNA3.1(+) vector contains the Neomycin resistance gene and was used for selection of stable cell line. The hCYP17a1 containing pCDNA3.1(+) was transfected into LNCap cells to create the LNCap-CYP17 cell line. The media for the LNCaP-CYP17 cells was RPMI 1640, 10% FBS, 1% PenStrep, Geneticin 400 μg/mL.
The H295R cells or LNCaP-hCYP17 cells were subcultured and 30,000 cells per well were seeded in a poly-d lysine plate and incubated overnight at 37° C. The next day the media was removed and 200 µL of fresh media with ^3H3-17α-hydroxy-pregnenolone (1:1000) was added. 50 μL of serially diluted compounds from a 5× plate (5 times the final desired concentration) was added. The working concentration range for active, new compounds started from a high concentration of […] with 3-fold serial dilutions generating up to 10 concentrations. The serial dilution in the 100× plate (in DMSO) and the stamping of a 5× plate (in media) from the 100× plate were carried out using a TECAN liquid handling device.
The plates were incubated overnight (16 hours) at 37° C. After 16 hours, the media was removed (approximately 220 μL) and an equal amount of chloroform was added, mixed and incubated for 30 minutes at 4 degrees. The plate was centrifuged at 4000 rpm for 15 minutes at 4° C., following which the top aqueous layer was carefully removed and added into a new deep well plate. An equal volume of activated 5% charcoal was added, mixed and incubated for 30 minutes at 4° C. The plate was then centrifuged at 4000 rpm for 15 minutes at 4° C. and the top layer carefully separated, avoiding any charcoal contamination, and placed in a white, clear bottom plate (plate cat #3610, Corning Life Sciences). An equal volume of Microscint™ 40 was added and mixed well. Following the incubation for 30 minutes, readings for the radiotracer were taken using a Microbeta® trilux.

Molecules are shown by their SMILES.

Regarding `CCC(c1cnc(-c2cccc(F)c2)s1)n1ccnc1` (stereo not shown) [Example 1, 5-(1-(1H-imidazol-1-yl)propyl)-2-(3-fluorophenyl)thiazole], the IC50 was 50 to 200 nM.

With `CCC(c1ccc(-c2ccc(OC)cc2)s1)n1ccnc1` (stereo not shown) [Example 3, 1-(1-(5-(4-methoxyphenyl)thiophen-2-yl)propyl)-1H-imidazole], the IC50 is less than 50 nM.

For the compound `CCC(c1ccc(-c2ccc(O)cc2)s1)n1ccnc1` (stereo not shown) [Example 4, 4-(5-(1-(1H-imidazol-1-yl)propyl)thiophen-2-yl)phenol], the IC50 was less than 50 nM.

Consider `CCOC(=O)c1ccc(-c2ccc(C(CC)n3ccnc3)nc2)cc1` (stereo not shown) [Example 5, Ethyl 4-(6-(1-(1H-imidazol-1-yl)propyl)pyridin-3-yl)benzoate], for which the IC50 lay within 50 to 200 nM.

Take `CCC(c1ccc(-c2ccc(C(=O)O)cc2)cn1)n1ccnc1` (stereo not shown) [Example 6, 4-(6-(1-(1H-imidazol-1-yl)propyl)pyridin-3-yl)benzoic acid]: the IC50 was 201 to 10000 nM.

As to `CCC(c1ccc(-c2cccc(OC)c2)cn1)n1ccnc1` (stereo not shown) [Example 7, 2-(1-(1H-imidazol-1-yl)propyl)-5-(3-methoxyphenyl)pyridine], the IC50 is less than 50 nM.

Consider `CCC(c1ccc(-c2cccc(O)c2)cn1)n1ccnc1` (stereo not shown) [Example 8, 3-(6-(1-(1H-imidazol-1-yl)propyl)pyridin-3-yl)phenol], for which the IC50 is less than 50 nM.

Turning to `CCC(c1ccc(-c2ccc(C(=O)NC)cc2)cn1)n1ccnc1` (stereo not shown) [Example 9, 4-(6-(1-(1H-imidazol-1-yl)propyl)pyridin-3-yl)-N-methylbenzamide], the IC50 is 201 to 10000 nM.

`CCC(c1ccc(-c2ccc(C(N)=O)cc2)cn1)n1ccnc1` (stereo not shown) [Example 10, 4-(6-(1-(1H-imidazol-1-yl)propyl)pyridin-3-yl)benzamide]: the IC50 lay within 201 to 10000 nM.

Regarding `CCC(c1ccc(-c2ccc(COCOC)cc2)cn1)n1ccnc1` (stereo not shown) [Example 11, 2-(1-(1H-imidazol-1-yl)propyl)-5-(4-((methoxymethoxy)methyl)-phenyl)pyridine], the IC50 was in the range of 50 to 200 nM.

For the compound `CC(c1ccc(-c2ccc(F)cc2)cn1)n1ccnc1` (stereo not shown) [Example 12, 2-(1-(1H-imidazol-1-yl)ethyl)-5-(4-fluorophenyl)pyridine], the IC50 is less than 50 nM.

Take `CC(c1ccc(-c2ccoc2)cn1)n1ccnc1` (stereo not shown) [Example 13, 2-(1-(1H-imidazol-1-yl)ethyl)-5-(furan-3-yl)pyridine]: the IC50 is 201 to 10000 nM.

Turning to `CC(c1ccc(-c2ccc(N)cc2)cn1)n1ccnc1` (stereo not shown) [Example 14, 4-(6-(1-(1H-imidazol-1-yl)ethyl)pyridin-3-yl)aniline], the IC50 is 201 to 10000 nM.

Take `COc1ccc(-c2ccc(C(C)n3ccnc3)nc2)cc1` (stereo not shown) [Example 15, 2-(1-(1H-imidazol-1-yl)ethyl)-5-(4-methoxyphenyl)pyridine]: the IC50 lay in the range of 50 to 200 nM.

For the compound `CC(c1ccc(-c2ccc(O)cc2)cn1)n1ccnc1` (stereo not shown) [Example 16, 4-(6-(1-(1H-imidazol-1-yl)ethyl)pyridin-3-yl)phenol], the IC50 is 50 to 200 nM.

With `CCC(c1ccc(-c2ccc(C#N)cc2)cn1)n1ccnc1` (stereo not shown) [Example 17, 4-[6-(1-Imidazol-1-yl-propyl)-pyridin-3-yl]-benzonitrile], the IC50 was in the range of 50 to 200 nM.

For the compound `CCC(c1ccc(-c2ccccc2C#N)cn1)n1ccnc1` (stereo not shown) [Example 18, 2-(6-(1-(1H-imidazol-1-yl)propyl)pyridin-3-yl)benzonitrile], the IC50 is 201 to 10000 nM.

For `CCC(c1nnc(-c2ccc(F)cc2)s1)n1ccnc1` (stereo not shown) [Example 19, 2-(1-(1H-imidazol-1-yl)propyl)-5-(4-fluorophenyl)-1,3,4-thiadiazole], the IC50 lay in the range of 50 to 200 nM.

In the case of `CC(c1ccc(-c2ccc(=O)n(C)c2)s1)n1ccnc1` (stereo not shown) [Example 20, 5-(5-(1-(1H-imidazol-1-yl)ethyl)thiophen-2-yl)-1-methylpyridin-2(1H)-one], the IC50 was less than 50 nM.

As for `CC(c1ccc(-c2ccc(=O)n(C(C)C)c2)s1)n1ccnc1` (stereo not shown) [Example 21, 5-(5-(1-(1H-imidazol-1-yl)ethyl)thiophen-2-yl)-1-isopropylpyridin-2(1H)-one], the IC50 was 50 to 200 nM.

Consider `CC(c1cnc(-c2ccc(C#N)cc2)s1)n1ccnc1` (stereo not shown) [Example 22, 4-(5-(1-(1H-imidazol-1-yl)ethyl)thiazol-2-yl)benzonitrile], for which the IC50 lay within 50 to 200 nM.

Take `CC(C)CC(c1ccc(-c2ccc(O)cc2)s1)n1ccnc1` (stereo not shown) [Example 23, 4-(5-(1-(1H-imidazol-1-yl)-3-methylbutyl)-thiophen-2-yl)phenol]: the IC50 is less than 50 nM.

Turning to `COc1ccc(-c2ccc(C(C)(C)n3ccnc3)s2)cc1` [Example 24, 1-(2-(5-(4-methoxyphenyl)-thiophen-2-yl)-propan-2-yl)-1H-imidazole], the IC50 was less than 50 nM.

Regarding `COc1ccc(-c2ccc(C(C)n3ccnc3)s2)cn1` (stereo not shown) [Example 25, 5-[5-(1-Imidazol-1-yl-ethyl)-thiophen-2-yl]-2-methoxy-pyridine], the IC50 was less than 50 nM.

For the compound `CC(C)(c1ccc(-c2ccc(O)cc2)s1)n1ccnc1` [Example 26, 4-[5-(1-Imidazol-1-yl-1-methyl-ethyl)-thiophen-2-yl]-phenol], the IC50 was less than 50 nM.

On to `CCC(c1ccc(-c2ccc(OC)cc2)o1)n1ccnc1` (stereo not shown) [Example 27, 1-{1-[5-(4-Methoxy-phenyl)-furan-2-y]-propyl}-1H-imidazole], for which the IC50 is less than 50 nM.

As for `CC(c1cnc(-c2ccc(F)cc2F)s1)n1ccnc1` (stereo not shown) [Example 28, 2-(2,4-Difluoro-phenyl)-5-(1-imidazol-1-yl-ethyl)-thiazole], the IC50 was less than 50 nM.

For `CCC(c1ccc(-c2ccc(F)cc2)cn1)n1ccnc1` (stereo not shown) [Example 29, 5-(4-Fluoro-phenyl)-2-(1-imidazol-1-yl-propyl)-pyridine], the IC50 was less than 50 nM.

For `CCC(c1ccc(-c2ccc(O)cc2)o1)n1ccnc1` (stereo not shown) [Example 30, 4-[5-(1-Imidazol-1-yl-propyl)-furan-2-yl]-phenol], the IC50 was less than 50 nM.

On to `CCC(c1cnc(-c2ccc(NC(=O)OC(C)(C)C)cc2)s1)n1ccnc1` (stereo not shown) [Example 31, {4-[5-(1-Imidazol-1-yl-propyl)-thiazol-2-yl]-phenyl}-carbamic acid tert-butyl ester], for which the IC50 is less than 50 nM.

In the case of `CCC(c1cnc(-c2ccc(F)cc2F)s1)n1ccnc1` (stereo not shown) [Example 32, 2-(2,4-Difluoro-phenyl)-5-(1-imidazol-1-yl-propyl)-thiazole], the IC50 is less than 50 nM.

`CCC(c1cnc(-c2ccc(F)cc2)s1)n1ccnc1` (stereo not shown) [Example 33, 2-(4-Fluoro-phenyl)-5-(1-imidazol-1-yl-propyl)-thiazole]: the IC50 was less than 50 nM.

On to `CC(c1ccc(-c2ccc(F)cc2)cn1)n1ccnc1` (stereo not shown) [Example 34, 5-(4-Fluoro-phenyl)-2-(1-imidazol-1-yl-ethyl)-pyridine], for which the IC50 was less than 50 nM.

`CCC(c1cnc(-c2ccc(OC)cc2)s1)n1ccnc1` (stereo not shown) [Example 35, 5-(1-Imidazol-1-yl-propyl)-2-(4-methoxy-phenyl)-thiazole]: the IC50 is 50 to 200 nM.

In the case of `COc1ccc(-c2ccc(C(C)n3ccnc3)s2)cc1` (stereo not shown) [Example 36, 1-{1-[5-(4-Methoxy-phenyl)-thiophen-2-yl]-ethyl}-1H-imidazole], the IC50 was less than 50 nM.

Regarding `CCC(c1ccc(-c2ccccc2O)cn1)n1ccnc1` (stereo not shown) [Example 37, 2-[6-(1-Imidazol-1-yl-propyl)-pyridin-3-yl]-phenol], the IC50 was less than 50 nM.

For the compound `CCC(c1cccc(-c2ccc(OC)cc2)n1)n1ccnc1` (stereo not shown) [Example 38, 2-(1-Imidazol-1-yl-propyl)-6-(4-methoxy-phenyl) pyridine], the IC50 was 50 to 200 nM.

Source of the values: patent publication US9199975B2, “Biaryl imidazole derivatives for regulating CYP17” (Asana Biosciences, LLC, priority 2011, dated 2015).
